According to US7322965B2, “Infection-resistant medical devices” (priority 2002, dated 2008):
Converted amounts (≈) assume the structure as drawn. Where two headings read alike, the source gives them in different places. Marks after values point to notes of the source that are not given here.

How the values were obtained:
Type in all cases: cell-based
[1] = test system: S. epidermidis UC-20208; assay: Time course adherence assay (prophylactic and delayed treatment); settings: for inhibition at 1 µg/mL / inhibition at 2 µg/mL / inhibition at 4 µg/mL / inhibition at 8 µg/mL: Staphylococcus epidermidis, read-out: Percent inhibition of bacterial adherence relative to controls; for Mean OD550: UC-20208
Procedure: (§1) Drug effects on bacterial adherence were measured 18 hours after treatment initiation using a quantitative spectrophotometric assay.
(§2) Relative inhibition of adherence was expressed by the following equation: (OD of control well−OD of treated well/OD of control well)×100, where OD is the mean optical density of six replicate wells from two separate experiments (three replicates per experiment). Control was defined as infected, drug-free cultures.
(§3) The primary efficacy variable in this study was the measurement of adherent bacteria to polystyrene surfaces after 18 hours to 24 hours of growth. To determine whether statistically significant differences existed between treatments (4×MIC, 2×MIC, MIC, and ½ MIC) compared with the infected-nontreated controls, multiple comparisons according to Dunnett's test (Montgomery, Design and Analysis of Experiments (1991)) were applied for each clinical strain. Differences were considered statistically significant when p<0.05.

[2] = test system: S. aureus UC-20206; assay: Microtiter-plate adherence assay on polystyrene; settings: for Adherence Mean OD550: S. aureus UC-20206, 18 h
Procedure: (§4) Briefly, the inoculum was established by the direct colony suspension method using the Prompt™ Inoculation System (Becton Dickinson, Sparks, Md.). The bacteria suspension, which was equal to the turbidity of a 0.5 McFarland standard, was diluted in TSB to a concentration of 1×10^6 colony forming units per ml (CFU/mL). One hundred microliters of the cell suspension was added to flat-bottom polystyrene wells (Corning Costar, Corning, N.Y.) containing 100 μl of TSB, with and without drug. The final inoculum concentration per well was approximately 5×10^5 CFU/mL. The plates were incubated at 37° C. under static conditions in air. At 18 hours (h) post-infection, the optical density of bacterial growth was measured at a wavelength of 595 nm in a microtiter plate reader (Vmax; Molecular Devices, Sunnyvale, Calif.). […] Adherent “sessile” cells then were fixed with 3.7% (v/v) formaldehyde/2% (w/v) sodium acetate and stained with 0.1% (w/v) crystal violet. Excess stain was rinsed off with deionized water and the plates were air-dried for 4 h. The optical density of bacterial adherence was determined at a wavelength of 550 nm. Preliminary studies were performed to determine the optimal wavelengths for measuring growth turbidity and stained adherent cells (data not shown). To compensate for background absorbance, optical density readings from wells treated with sterile medium, fixative and stain as described above were averaged and then subtracted from all test and control wells. Relative inhibition of adherence or growth was expressed by the following equation: (OD of control well−OD of treated well/OD of control well)×100, where OD is the mean optical density of six replicate wells from two separate experiments (three replicates per experiment). Control was defined as infected, drug-free cultures.
(§5) The primary efficacy variable in this study was the measurement of adherent bacterial cells to polystyrene after 18 h of growth. To determine whether statistically significant differences existed between treatment groups (MIC, ½ MIC, and ¼ MIC) compared with the infected-nontreated controls, the Kruskal-Wallis one-way analysis of variance (ANOVA) was applied for each clinical strain. Statistical significance was defined as p-values ≦0.05. An asterisk (*) was placed by all test values less than or equal to the specified significance level.

[3] = test system: S. aureus UC-20205; assay: Microtiter-plate adherence assay on polystyrene; settings: for Adherence Mean OD550: S. aureus UC-20205, 18 h
Procedure: as §4, §5

[4] = test system: S. epidermidis UC-20208; assay: Microtiter-plate adherence assay on polystyrene; settings: for Adherence Mean OD550: S. epidermidis UC-20208, 18 h
Procedure: as §4, §5

[5] = test system: S. epidermidis UC-20207; assay: Determination of minimum inhibitory concentration (microdilution); settings: Staphylococcus epidermidis, UC20207; S. epidermidis UC-20207; 18 h; read-out: MIC (minimum inhibitory concentration)
[6] = test system: S. hominis SP-2; assay: as above; settings: Staphylococcus hominis, SP2; S. hominis SP-2; 18 h; read-out: MIC (minimum inhibitory concentration)
[7] = test system: S. epidermidis isolates (UC-20207, UC-20208, and RP62A); assay: Time course adherence assay, summary over three S. epidermidis isolates; settings: for mean inhibitory effects on staphylococcal adherence: subtherapeutic (one-half MIC)
Procedure: as §1, §2, §3

[8] = Staphylococcus aureus, UC20206, 18 h, read-out: Adherence % Inhibition
[9] = Staphylococcus aureus, UC20205, 18 h, read-out: Adherence % Inhibition
[10] = Staphylococcus epidermidis, UC20208, 18 h, read-out: Adherence % Inhibition

CC(=O)NC[C@H]1CN(c2ccc(N3CCOCC3)c(F)c2)C(=O)O1 [Linezolid, (S)-N-[[3-[3-fluoro-4-(4-morpholinyl)phenyl]-2-oxo-5-oxazolidinyl]methyl]acetamide] showed an inhibition at 1 µg/mL ([1]; UC20208, 0 h) of 99.9%, an inhibition at 2 µg/mL ([1]; UC20208, 0 h) of 99.9% and an inhibition at 4 µg/mL ([1]; UC20208, 0 h) of 99.8%. For the same compound, the inhibition at 8 µg/mL ([1]; UC20208, 0 h) was 100%, the inhibition at 1 µg/mL ([1]; UC20208, 2 h) was 99.8% and the inhibition at 2 µg/mL ([1]; UC20208, 2 h) was 99.8%. It also gave an inhibition at 4 µg/mL ([1]; UC20208, 2 h) of 99.7%, an inhibition at 8 µg/mL ([1]; UC20208, 2 h) of 99.7% and an inhibition at 1 µg/mL ([1]; UC20208, 4 h) of 22.1%. The inhibition at 2 µg/mL ([1]; UC20208, 4 h) was 100%, the inhibition at 4 µg/mL ([1]; UC20208, 4 h) was 100% and the inhibition at 8 µg/mL ([1]; UC20208, 4 h) was 100%. For the same compound, the inhibition at 1 µg/mL ([1]; UC20208, 6 h) was 0%, the inhibition at 2 µg/mL ([1]; UC20208, 6 h) was 0% and the inhibition at 4 µg/mL ([1]; UC20208, 6 h) was 56.8%. For the same compound, the inhibition at 8 µg/mL ([1]; UC20208, 6 h) was 89.1%, the “Mean OD550” value ([1]; 1.0 μg/ml, treatment 0 h post-infection) was 0.001 ± 0.002 and the “Mean OD550” value ([1]; 1.0 μg/ml, treatment 2 h post-infection) was 0.003 ± 0.001. For the same compound, the “Mean OD550” value ([1]; 1.0 μg/ml, treatment 4 h post-infection) was 0.856 ± 0.472, the “Mean OD550” value ([1]; 1.0 μg/ml, treatment 6 h post-infection) was 1.127 ± 0.133 and the “Mean OD550” value ([1]; 2.0 μg/ml (MIC), treatment 0 h post-infection) was 0.001 ± 0.001. For the same compound, the “Mean OD550” value ([1]; 2.0 μg/ml (MIC), treatment 2 h post-infection) was 0.003 ± 0.000, the “Mean OD550” value ([1]; 2.0 μg/ml (MIC), treatment 4 h post-infection) was 0.000 ± 0.003 and the “Mean OD550” value ([1]; 2.0 μg/ml (MIC), treatment 6 h post-infection) was 1.602 ± 0.300. For the same compound, the “Mean OD550” value ([1]; 4.0 μg/ml, treatment 0 h post-infection) was 0.002 ± 0.001, the “Mean OD550” value ([1]; 4.0 μg/ml, treatment 2 h post-infection) was 0.004 ± 0.001 and the “Mean OD550” value ([1]; 4.0 μg/ml, treatment 4 h post-infection) was 0.000 ± 0.001. The “Mean OD550” value ([1]; 4.0 μg/ml, treatment 6 h post-infection) was 0.363 ± 0.280, the “Mean OD550” value ([1]; 8.0 μg/ml, treatment 0 h post-infection) was 0.000 ± 0.001 and the “Mean OD550” value ([1]; 8.0 μg/ml, treatment 2 h post-infection) was 0.004 ± 0.001. The “Mean OD550” value ([1]; 8.0 μg/ml, treatment 4 h post-infection) was 0.000 ± 0.003, the “Mean OD550” value ([1]; 8.0 μg/ml, treatment 6 h post-infection) was 0.092 ± 0.053 and the “Adherence Mean OD550” value ([2]; drug 1.0 μg/ml) was 0.001 ± 0.002*. For the same compound, the “Adherence Mean OD550” value ([2]; drug 2.0 μg/ml) was 0.002 ± 0.002*, the “Adherence Mean OD550” value ([2]; drug 4.0 μg/ml) was 0.003 ± 0.003* and the inhibition at 1 µg/mL [2, 8] was 99.4%. For the same compound, the inhibition at 2 µg/mL [2, 8] was 99.3%, the inhibition at 4 µg/mL [2, 8] was 98.5% and the “Adherence Mean OD550” value ([3]; drug 0.5 μg/ml) was 0.013 ± 0.007*. The “Adherence Mean OD550” value ([3]; drug 1.0 μg/ml) was 0.005 ± 0.007*, the “Adherence Mean OD550” value ([3]; drug 2.0 μg/ml) was 0.001 ± 0.001* and the inhibition at 0.5 µg/mL [3, 9] was 97.6%. The inhibition at 1 µg/mL [3, 9] was 99%, the inhibition at 2 µg/mL [3, 9] was 99.7% and the “Adherence Mean OD550” value ([4]; drug 0.5 μg/ml) was 1.342 ± 0.791. For the same compound, the “Adherence Mean OD550” value ([4]; drug 1.0 μg/ml) was 0.001 ± 0.002*, the “Adherence Mean OD550” value ([4]; drug 2.0 μg/ml (MIC)) was 0.000 ± 0.001* and the inhibition at 0.5 µg/mL [4, 10] was 26.7%. For the same compound, the inhibition at 1 µg/mL [4, 10] was 99.9%, the inhibition at 2 µg/mL [4, 10] was 100% and the MIC [5] was 2 µg/mL (≈ 5.93 µM). For the same compound, the MIC [6] was 2 µg/mL (≈ 5.93 µM), the “inhibitory effects on adherence” value ([7]; 4×MIC, 6-hour delay, mean of three strains) was 87.5%±11.7 and the “mean inhibitory effects on staphylococcal adherence” value ([7]; 2 h delayed treatment, mean of three strains) was 99.1%±1.4. The “mean inhibitory effects on staphylococcal adherence” value ([7]; 4 h delayed treatment, mean of three strains) was 63.5%±39.2 and the anti-adhesion activity ([7]; therapeutic levels (≧MIC), 2- and 4-hour deferred treatments) was “potent anti-adhesion activity”.
